Earlier results as cited in US20230413809A1, “DISINFECTANT COMPOSITION FOR SURFACES AND THE PREPARATION THEREOF” (Onyx Lotus, LLC, priority 2020, published 2023).

Conditions: general statement on surfactant detergency, no test described

SMILES | Critical micellar concentration (CMC)
CCCCCCCCCCCCCCCC[N+](C)(C)C.[Br-] [CTAB, cetyltrimethylammonium bromide] | 0.92 mM
O=C([O-])CC(C(=O)[O-])S(=O)(=O)O.[Na+].[Na+] (centres unmarked) [sodium sulfosuccinate] | 0.6 mM
